Source: the supplement of paper PMC10307832

Assays:
Assay in all cases: relative viability (nuclei count vs DMSO), 5 days (fraction); higher = more cells survive
[1] = compound: CN(c1ncccc1CNc1nc(Nc2ccc3c(c2)CC(=O)N3)ncc1C(F)(F)F)S(C)(=O)=O + CC(=O)Nc1cccc(-n2c(=O)n(C3CC3)c(=O)c3c(Nc4ccc(I)cc4F)n(C)c(=O)c(C)c32)c1 [Trametinib] (partner 0.02 µM)
Outline: (§1)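 Lung cancer cell lines in 1536-well plates got either a single drug or a fixed anchor-drug dose together with five library-drug doses (not always all listed) in √10 steps, by pin tool, on the day after seeding. Nuclei were counted after 5 days, and relative viability is the treated-to-vehicle ratio of nuclei counts. Values are medians of duplicate plates.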

[2] = compound: CN(c1ncccc1CNc1nc(Nc2ccc3c(c2)CC(=O)N3)ncc1C(F)(F)F)S(C)(=O)=O + CS(=O)(=O)CCNCc1ccc(-c2ccc3ncnc(Nc4ccc(OCc5cccc(F)c5)c(Cl)c4)c3c2)o1 [Lapatinib] (partner 2 µM)
Outline: as §1

[3] = compound: CN(c1ncccc1CNc1nc(Nc2ccc3c(c2)CC(=O)N3)ncc1C(F)(F)F)S(C)(=O)=O + N=C(N)NC(=N)NCCc1ccccc1 [Phenformin] (partner 250 µM)
Outline: as §1

[4] = compound: CN(c1ncccc1CNc1nc(Nc2ccc3c(c2)CC(=O)N3)ncc1C(F)(F)F)S(C)(=O)=O + O=C(c1cc(Cc2n[nH]c(=O)c3ccccc23)ccc1F)N1CCN(C(=O)C2CC2)CC1 [Olaparib] (partner 8 µM)
Outline: as §1

| Cell Line | relative viability ([1]; first compound 0.01 µM) | relative viability ([1]; first compound 0.03162 µM) | relative viability ([1]; first compound 0.1 µM) | relative viability ([1]; first compound 0.3162 µM) | relative viability ([1]; first compound 1 µM) | relative viability ([2]; first compound 0.01 µM) | relative viability ([2]; first compound 0.03162 µM) | relative viability ([2]; first compound 0.1 µM) | relative viability ([2]; first compound 0.3162 µM) | relative viability ([2]; first compound 1 µM) | relative viability ([3]; first compound 0.01 µM) | relative viability ([3]; first compound 0.03162 µM) | relative viability ([3]; first compound 0.1 µM) | relative viability ([3]; first compound 0.3162 µM) | relative viability ([3]; first compound 1 µM) | relative viability ([4]; first compound 0.01 µM) | relative viability ([4]; first compound 0.03162 µM) | relative viability ([4]; first compound 0.1 µM) | relative viability ([4]; first compound 0.3162 µM) | relative viability ([4]; first compound 1 µM) |
| --- | --- | --- | --- | --- | --- | --- | --- | --- | --- | --- | --- | --- | --- | --- | --- | --- | --- | --- | --- | --- |
| HCC-827 | 0.574 | 0.517 | 0.496 | 0.56 | 0.495 | 0.186 | 0.149 | 0.215 | 0.177 | 0.182 | 0.402 | 0.465 | 0.432 | 0.441 | 0.404 | 0.635 | 0.557 | 0.647 | 0.707 | 0.705 |
| HCC-78 | 0.681 | 0.864 | 0.753 | 0.641 | 0.507 | 1.09 | 0.748 | 0.708 | 0.713 | 0.329 | 0.67 | 0.662 | 0.563 | 0.566 | 0.573 | 0.856 | 0.999 | 0.783 | 0.797 | 0.714 |
| NCI-H2085 | 0.564 | 0.461 | 0.551 | 0.619 | 0.471 | 0.777 | 0.81 | 0.797 | 0.696 | 0.662 | 0.743 | 0.781 | 0.644 | 0.775 | 0.627 | 0.79 | 0.81 | 0.71 | 0.759 | 0.696 |
| PC-14 | 0.82 | 0.909 | 0.891 | 0.726 | 0.619 | 0.366 | 0.373 | 0.292 | 0.323 | 0.33 | 0.726 | 0.59 | 0.563 | 0.565 | 0.715 | 0.38 | 0.282 | 0.271 | 0.261 | 0.243 |
| NCI-H1648 | 0.417 | 0.435 | 0.462 | 0.392 | 0.301 | – | – | – | – | – | – | – | – | – | – | 0.874 | 0.886 | 0.918 | 0.48 | 0.46 |
| A-427 | 0.722 | 0.791 | 0.67 | 0.821 | 0.741 | 1.05 | 1.05 | 1 | 1.04 | 1.02 | 0.337 | 0.315 | 0.353 | 0.269 | 0.291 | 0.752 | 0.738 | 0.651 | 0.741 | 0.651 |
| H3255 | 0.688 | 0.675 | 0.549 | 0.601 | 0.576 | 0.24 | 0.221 | 0.237 | 0.192 | 0.252 | 0.34 | 0.339 | 0.316 | 0.384 | 0.342 | 0.623 | 0.611 | 0.554 | 0.547 | 0.445 |
| HCC-44 | 1.02 | 1.05 | 0.959 | 1.09 | 1.12 | 1.09 | 0.986 | 0.987 | 0.993 | 0.972 | 0.193 | 0.171 | 0.297 | 0.239 | 0.316 | 0.959 | 0.978 | 0.917 | 0.875 | 0.904 |
| NCI-H1734 | 0.602 | 0.661 | 0.663 | 0.719 | 0.539 | 0.993 | 1.17 | 1.06 | 1.1 | 1.05 | 0.395 | 0.395 | 0.375 | 0.4 | 0.415 | 0.586 | 0.677 | 0.614 | 0.594 | 0.596 |
| NCI-H2228 | 0.553 | 0.81 | 0.473 | 0.384 | 0.483 | 0.835 | 0.914 | 1.02 | 1.07 | 1.08 | 0.321 | 0.471 | 0.306 | 0.331 | 0.292 | 0.619 | 1.01 | 0.665 | 0.766 | 0.539 |
| ABC-1 | – | – | – | – | – | 1.29 | 1.15 | 1.36 | 1.13 | 1.21 | 0.214 | 0.238 | 0.26 | 0.279 | 0.229 | 0.813 | 1.08 | 1.42 | 0.893 | 1.06 |
| COR-L23 | 0.563 | 0.66 | 0.57 | 0.605 | 0.516 | 0.924 | 1.16 | 0.92 | 0.883 | 0.628 | 0.464 | 0.54 | 0.416 | 0.424 | 0.332 | 0.382 | 0.344 | 0.33 | 0.305 | 0.278 |
| ChaGo-K-1 | 0.959 | 0.923 | 0.999 | 0.912 | 0.849 | – | – | – | – | – | 0.489 | 0.444 | 0.461 | 0.489 | 0.404 | 0.453 | 0.397 | 0.4 | 0.401 | 0.355 |
| EBC-1 | – | – | – | – | – | 0.217 | 0.187 | 0.248 | 0.204 | 0.2 | – | – | – | – | – | 0.71 | 0.649 | 0.706 | 0.634 | 0.58 |
| NCI-H441 | 0.457 | 0.461 | 0.402 | 0.336 | 0.403 | – | – | – | – | – | 0.926 | 0.859 | 0.805 | 0.864 | 0.787 | 0.633 | 0.592 | 0.466 | 0.486 | 0.408 |
| A549 | – | – | – | – | – | 1 | 1.06 | 0.971 | 0.928 | 0.915 | 0.189 | 0.205 | 0.173 | 0.133 | 0.152 | 0.29 | 0.367 | 0.352 | 0.464 | 0.373 |
| NCI-H1703 | – | – | – | – | – | 1.05 | 1.13 | 1.27 | 1.41 | 1.01 | – | – | – | – | – | 0.393 | 0.388 | 0.368 | 0.526 | 0.389 |
| LCLC-103H | 0.674 | 0.687 | 0.675 | 0.704 | 0.673 | – | – | – | – | – | 0.337 | 0.298 | 0.277 | 0.348 | 0.318 | 0.724 | 0.742 | 0.78 | 0.693 | 0.669 |
| NCI-H1563 | – | – | – | – | – | 0.906 | 0.839 | 0.857 | 0.942 | 1.07 | 0.677 | 0.686 | 0.683 | 0.634 | 0.649 | – | – | – | – | – |
